Data from publication PMC11859184, “Synthesis and Evaluation of ^68Ga- and ^177Lu-Labeled [diF-Pro^14]Bombesin(6−14) Analogs for Detection and Radioligand Therapy of Gastrin-Releasing Peptide Receptor-Expressing Cancer” (Pharmaceuticals, 2025).
Like-named read-outs stand apart in the source and are kept apart here. Blank lines part the entries; values can stand above or below the molecule they belong to.

Experiments:
[1] = Ex vivo biodistribution of 68Ga-labeled tracers in PC-3 tumor-bearing mice; details: mouse, 1 h pi; for tissue to tissue ratio at 1 h: male, NOD.Cg-Rag1^tm1Mom Il2rg^tm1Wjl/SzJ (NRG), iv, total radioactivity; for tissue uptake at 1 h: intravenous
Method: PET/CT imaging and biodistribution studies were conducted using male NOD.Cg-Rag1^tm1Mom Il2rg^tm1Wjl/SzJ (NRG) mice following previously published procedures. The studies were carried out in compliance with the guidelines established by the Canadian Council on Animal Care and approved by Animal Ethics Committee of the University of British Columbia (protocol number A20-0113, approved on 30 September 2022). The mice were anaesthetized and subcutaneously implanted with 5 × 10^6 PC-3 cells (100 µL; 1:1 PBS/Matrigel) behind the left shoulder. PET/CT imaging and biodistribution studies were performed once the tumors reached a diameter of 5–8 mm, typically after approximately 4 weeks of growth.
For ex vivo biodistribution studies, the mice were injected with the ^68Ga-labeled tracer (2–4 MBq) via a lateral caudal tail vein. For blocking [^68Ga]Ga-LW02060, the mice were co-injected with 100 μg of [D-Phe^6,Leu-NHEt^13,des-Met^14]Bombesin(6–14). For blocking [^68Ga]Ga-LW02080, the mice were co-injected with 100 μg of its nonradioactive standard Ga-LW02080. At 1 h pi, the mice were euthanized by CO2 inhalation. Blood and organs/tissues of interest were collected, weighed, and counted using a gamma counter.

GRPR = target: T1, GRPR (Homo sapiens, UniProt P30550); assay: Fluorometric intracellular calcium release assay using PC-3 cells; assay type: cell-based; details: for intracellular calcium release: 50 nM ligand, n = 4
T1 construct: host or cells: PC-3 cells
Method: The agonist/antagonist characteristics of LW02060, Ga-LW02060, Lu-LW02060, LW02080, Ga-LW02080, and Lu-LW02080 were determined following published procedures. The PC-3 cells were obtained from ATCC (via Cedarlane, Burlington, ON, Canada). A 96-well clear bottom black plate was seeded with 5 × 10^4 PC-3 cells in 100 μL growth media per well 24 h before the assay. The loading buffer (100 μL/well) containing a calcium-sensitive dye (FLIPR Calcium 6 assay kit from Molecular Devices, San Jose, CA, USA) was added into the 96-well plate, followed by 1 h incubation at 37 °C. The plate was then transferred into a FlexStation 3 microplate reader (Molecular Devices, San Jose, CA, USA). LW02060 (50 nM), Ga-LW02060 (50 nM), Lu-LW02060 (50 nM), LW02080 (50 nM), Ga-LW02080 (50 nM), Lu-LW02080 (50 nM), [D-Phe^6,Leu-NHEt^13,des-Met^14]Bombesin(6–14) (50 nM, antagonist control), bombesin (50 nM, agonist control), adenosine triphosphate (ATP, 50 nM, positive control), or DPBS (blank control) was added, and the fluorescent signals were measured for 2 min (λEx = 485 nm; λEm = 525 nm; n = 4). The relative fluorescent units (RFU = max − min) were calculated to determine the agonistic/antagonistic characteristics of LW02060, Ga-LW02060, Lu-LW02060, LW02080, Ga-LW02080, and Lu-LW02080, respectively.

T1 sequence (P30550 whole entry): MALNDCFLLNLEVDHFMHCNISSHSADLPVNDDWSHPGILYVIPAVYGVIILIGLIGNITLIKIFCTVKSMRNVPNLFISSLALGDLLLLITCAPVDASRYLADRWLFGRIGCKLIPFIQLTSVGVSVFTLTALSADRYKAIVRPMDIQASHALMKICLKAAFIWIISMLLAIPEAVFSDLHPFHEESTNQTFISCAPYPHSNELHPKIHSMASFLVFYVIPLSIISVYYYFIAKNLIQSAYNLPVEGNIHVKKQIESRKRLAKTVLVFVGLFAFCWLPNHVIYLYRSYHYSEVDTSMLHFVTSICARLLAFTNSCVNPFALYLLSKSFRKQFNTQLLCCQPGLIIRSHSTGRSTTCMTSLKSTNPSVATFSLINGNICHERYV

tissue to tissue ratio at 1 h ([1]; tumor/blood, blocked (100 µg blocking agent co-injected), read-out: Tumor/blood uptake ratio): 0.87 ± 0.15
tissue to tissue ratio at 1 h ([1]; tumor/blood, n = 4, read-out: Tumor/blood uptake ratio): 22.7 ± 4.13
tissue to tissue ratio at 1 h ([1]; tumor/bone, blocked (100 µg blocking agent co-injected), read-out: Tumor/bone uptake ratio): 5.52 ± 0.68
tissue to tissue ratio at 1 h ([1]; tumor/bone, n = 4, read-out: Tumor/bone uptake ratio): 69.8 ± 13.7
tissue to tissue ratio at 1 h ([1]; tumor/kidney, blocked (100 µg blocking agent co-injected), read-out: Tumor/kidney uptake ratio): 0.14 ± 0.03
tissue to tissue ratio at 1 h ([1]; tumor/kidney, n = 4, read-out: Tumor/kidney uptake ratio): 3.18 ± 0.75
tissue to tissue ratio at 1 h ([1]; tumor/muscle, blocked (100 µg blocking agent co-injected), read-out: Tumor/muscle uptake ratio): 3.61 ± 0.14
tissue to tissue ratio at 1 h ([1]; tumor/muscle, n = 4, read-out: Tumor/muscle uptake ratio): 117 ± 18.6
tissue to tissue ratio at 1 h ([1]; tumor/pancreas, blocked (100 µg blocking agent co-injected), read-out: Tumor/pancreas uptake ratio): 3.47 ± 0.64
tissue to tissue ratio at 1 h ([1]; tumor/pancreas, n = 4, read-out: Tumor/pancreas uptake ratio): 18.4 ± 2.86
tissue uptake at 1 h ([1]; PC-3 tumor, 100 ug, blocked (100 µg blocking agent co-injected), read-out: PC-3 tumor uptake): 1.71 ± 0.39 %ID/g
tissue uptake at 1 h ([1]; PC-3 tumor, n = 4, read-out: PC-3 tumor uptake): 7.36 ± 1.33 %ID/g
tissue uptake at 1 h ([1]; adrenal glands, 100 ug, blocked (100 µg blocking agent co-injected), read-out: Adrenal glands uptake): 0.69 ± 0.05 %ID/g
tissue uptake at 1 h ([1]; adrenal glands, n = 4, read-out: Adrenal glands uptake): 0.39 %ID/g
tissue uptake at 1 h ([1]; blood, 100 ug, blocked (100 µg blocking agent co-injected), read-out: Blood uptake): 2.02 ± 0.7 %ID/g
tissue uptake at 1 h ([1]; blood, n = 4, read-out: Blood uptake): 0.33 ± 0.08 %ID/g
tissue uptake at 1 h ([1]; bone, 100 ug, blocked (100 µg blocking agent co-injected), read-out: Bone uptake): 0.31 ± 0.06 %ID/g
tissue uptake at 1 h ([1]; bone, n = 4, read-out: Bone uptake): 0.11 ± 0.02 %ID/g
tissue uptake at 1 h ([1]; brain, 100 ug, blocked (100 µg blocking agent co-injected), read-out: Brain uptake): 0.06 ± 0.03 %ID/g
tissue uptake at 1 h ([1]; brain, n = 4, read-out: Brain uptake): 0.01 %ID/g
tissue uptake at 1 h ([1]; fat, 100 ug, blocked (100 µg blocking agent co-injected), read-out: Fat uptake): 0.25 ± 0.04 %ID/g
tissue uptake at 1 h ([1]; fat, n = 4, read-out: Fat uptake): 0.03 ± 0.01 %ID/g
tissue uptake at 1 h ([1]; heart, 100 ug, blocked (100 µg blocking agent co-injected), read-out: Heart uptake): 0.66 ± 0.18 %ID/g
tissue uptake at 1 h ([1]; heart, n = 4, read-out: Heart uptake): 0.11 ± 0.03 %ID/g
tissue uptake at 1 h ([1]; kidneys, 100 ug, blocked (100 µg blocking agent co-injected), read-out: Kidneys uptake): 11.2 ± 1.02 %ID/g
tissue uptake at 1 h ([1]; kidneys, n = 4, read-out: Kidneys uptake): 2.42 ± 0.81 %ID/g
tissue uptake at 1 h ([1]; large intestine, 100 ug, blocked (100 µg blocking agent co-injected), read-out: Large intestine uptake): 0.33 ± 0.1 %ID/g
tissue uptake at 1 h ([1]; large intestine, n = 4, read-out: Large intestine uptake): 0.3 ± 0.09 %ID/g
tissue uptake at 1 h ([1]; liver, 100 ug, blocked (100 µg blocking agent co-injected), read-out: Liver uptake): 1.05 ± 0.39 %ID/g
tissue uptake at 1 h ([1]; liver, n = 4, read-out: Liver uptake): 0.31 ± 0.07 %ID/g
tissue uptake at 1 h ([1]; lungs, 100 ug, blocked (100 µg blocking agent co-injected), read-out: Lungs uptake): 1.52 ± 0.44 %ID/g
tissue uptake at 1 h ([1]; lungs, n = 4, read-out: Lungs uptake): 0.28 ± 0.05 %ID/g
tissue uptake at 1 h ([1]; muscle, 100 ug, blocked (100 µg blocking agent co-injected), read-out: Muscle uptake): 0.53 ± 0.06 %ID/g
tissue uptake at 1 h ([1]; muscle, n = 4, read-out: Muscle uptake): 0.06 ± 0.02 %ID/g
tissue uptake at 1 h ([1]; pancreas, 100 ug, blocked (100 µg blocking agent co-injected), read-out: Pancreas uptake): 0.51 ± 0.18 %ID/g
tissue uptake at 1 h ([1]; pancreas, n = 4, read-out: Pancreas uptake): 0.38 ± 0.04 %ID/g
tissue uptake at 1 h ([1]; small intestine, 100 ug, blocked (100 µg blocking agent co-injected), read-out: Small intestine uptake): 1.04 ± 0.48 %ID/g
tissue uptake at 1 h ([1]; small intestine, n = 4, read-out: Small intestine uptake): 0.24 ± 0.07 %ID/g
tissue uptake at 1 h ([1]; spleen, 100 ug, blocked (100 µg blocking agent co-injected), read-out: Spleen uptake): 0.56 ± 0.17 %ID/g
tissue uptake at 1 h ([1]; spleen, n = 4, read-out: Spleen uptake): 0.18 ± 0.05 %ID/g
tissue uptake at 1 h ([1]; stomach, 100 ug, blocked (100 µg blocking agent co-injected), read-out: Stomach uptake): 0.38 ± 0.2 %ID/g
tissue uptake at 1 h ([1]; stomach, n = 4, read-out: Stomach uptake): 0.08 ± 0.04 %ID/g
tissue uptake at 1 h ([1]; testes, 100 ug, blocked (100 µg blocking agent co-injected), read-out: Testes uptake): 0.63 ± 0.2 %ID/g
tissue uptake at 1 h ([1]; testes, n = 4, read-out: Testes uptake): 0.12 ± 0.03 %ID/g
Molecule: CC(C)C[C@@H](CN1CC(F)(F)C[C@H]1C(N)=O)NC(=O)[C@H](Cc1c[nH]cn1)NC(=O)CN(C)C(=O)[C@@H](NC(=O)[C@H](C)NC(=O)[C@H](Cc1c[nH]c2ccccc12)NC(=O)[C@H](CCC(N)=O)NC(=O)[C@@H](Cc1ccccc1)NC(=O)CN1CCC(NC(=O)CN2CCN(CC(=O)O)CCN(CC(=O)O)CCN(CC(=O)O)CC2)CC1)C(C)C [[^68Ga]Ga-LW02080, metal not drawn]

agonist/antagonist characteristics (GRPR): GRPR antagonists
intracellular calcium release (GRPR): 11.4 ± 0.32 RFU
Molecule: DOTA-Pip-[D-Phe^6,NMe-Gly^11,Leu^13(ψ)diF-Pro^14]Bombesin(6–14) [LW02080]

agonist/antagonist characteristics (GRPR): GRPR agonists
intracellular calcium release (GRPR): 377 ± 41.9 RFU
Molecule: DOTA-Pip-[D-Phe^6,Tle^10,NMe-His^12,diF-Pro^14]Bombesin(6–14) [LW02060]
